A word on the inhibition: it is the change of the read-out against control, counted positive when it falls. As a reminder, the pIC50 is the negative decadic logarithm of the IC50, by convention in mol/L. One may read the CC50 as the concentration giving 50% cytotoxicity. For orientation: pKd means the negative decadic logarithm of the Kd, by convention in mol/L. Lower therefore signals a large Kd.

Data set [1] concerns the target T1, SARS-CoV-2 nsp15 endoribonuclease (endoU) (Severe acute respiratory syndrome coronavirus 2, UniProt P0DTD1). Put plainly: biochemical. The note with it: for inhibition at 10 µM: read-out: 1° FRET Assay % inhibition. It is filed as biochemical.
Data set [2] is described as follows: Amplex Red redox-cycling counter screen (H2O2 generation with DTT). As to conditions: 1 mM DTT; compared with redox-cycling reference DA-3003-1. (Counterscreens check selectivity or assay interference.)
For data set [3], the target named is T2, SARS-CoV-2 nsp15 (Severe acute respiratory syndrome coronavirus 2, UniProt P0DTD1). It is filed as binding.
Data set [4] can be described thus: Mammalian cytotoxicity assay, CRL-8155. As to conditions: human, CRL-8155 lymphocyte cells.
For data set [5] the following is noted: mice, 100 mg/kg per day for 6 months ref 37; cited from earlier work.
For data set [6], the system named is SARS-CoV-2. Put plainly: microbe, parasite or virus in culture. It is filed as cell-based. As to conditions: Severe acute respiratory syndrome coronavirus 2, read-out: EC90 (concentration that reduces viral replication by 90%); Caco-2, microscopic observation.
Data set [7] can be described thus: Cell viability in Calu-3 cells (cell number per well). As to conditions: human, CC50, Calu-3, 48 h.
Data set [8] addresses T2, SARS-CoV-2 nsp15. Put plainly: Native MS (CID/SID) ligand binding to nsp15.
From the text: In native MS, nsp15 was electrosprayed from non-denaturing ammonium acetate solution in the presence of an inhibitor. Inhibitor binding can be evaluated by monitoring the increase in mass of the inhibitor-nsp15 complex compared to the apo (protein with no ligand) nsp15 protein. […] Collision-induced dissociation (CID), widely available in commercial mass spectrometers, involves acceleration of protein ions into a pressurized collision cell. Upon CID, the internal energy of the protein increases from multiple collisions with neutral gas molecules.
By increasing the acceleration voltage to 120V, CID and SID of the nsp15 hexamer both released primarily monomeric species (Fig 6B and 6C), with SID resulting in lower charged monomers and additional dimers/trimers. […] The peak cluster centered at 41.2 kDa is the apo protein (sequence mass and salt adducts).
Recombinant nsp15 was buffer exchanged into 100 mM ammonium acetate (pH adjusted to 7.5 using ammonium hydroxide) using size exclusion spin columns (Zeba Micro Spin Desalting Columns, 7k MWCO, 75 μL) following manufacturer’s protocol. The protein solution was then diluted to 5 μM, supplemented with 10 μM Mn(II) acetate, and mixed with ligands at desired concentrations. […]
The test system of data set [9] is SARS-CoV-2 (isolate USA WA1/2020). Nature of the data set: microbe, parasite or virus in culture. It is filed as cell-based. The note with it: Severe acute respiratory syndrome coronavirus 2; Calu-3, MOI = 0.5, 48 h, immunostaining; read-out: EC50 (infection).
For data set [10] the following is noted: 100 mg/kg oral dose, Sprague-Dawley rats, no reference given, cited from earlier work.
Data set [11] can be described thus: Cytotoxicity in Vero 76 cells (CPE assay toxicity wells). As to conditions: African green monkey.
In data set [12] the test system is SARS-CoV-2. Put plainly: microbe, parasite or virus in culture. It is filed as cell-based. The note with it: for protection against viral CPE: Vero 76.
Data set [13] in a line: Mammalian cytotoxicity assay, HepG2. As to conditions: human, HepG2 hepatocyte cells.
Data set [14] in a line: Cytotoxicity in Caco-2 cells. The note with it: human.
For data set [15], the target named is T1, SARS-CoV-2 nsp15 endoribonuclease (endoU). Nature of the data set: biochemical. As to conditions: 0.78 μM nsp15, 500 ng poly(rA) substrate, 2 h; n = 3; read-out: RNA Cleavage Assay IC50.
The nature of data set [16]: Solubility observation in DMSO and assay buffer. As to conditions: diluted in assay buffer.
For data set [17], the system named is SARS-CoV-2. Also noted: method as in PMID 33564093. The note with it: at 50 μM concentrations ref 15; cited from earlier work.
The mark [18] stands for this setting: primary screen at 10 μM, 25 nM nsp15, 0.5 μM substrate, 1 h.

pEC50, pIC50, pKd: −log10 of the molar value. Values joined by “and” are separate entries in the source; they are usually repeats but may differ in a detail not shown here. Equal entries are not always repeated. Where two headings read alike, the source gives them in different places.

For the molecule `Cc1cc(N)c2cc(NC(=O)Nc3ccc4nc(C)cc(N)c4c3)ccc2n1` [Aminoquinuride], in data set [1], the inhibition at 10 µM turned out to be 95%.
Regarding `O=C1C(NC2CCCCCCC2)=CC(=O)c2ncccc21` [Azaquinone], the “Amplex Red Assay % Activity (redox cycling)” value (“Amplex Red Assay % Activity” for short) in [2] is listed as above 100%. Further, in data set [3], the “DSF Assay ΔTm” value was -11.4 °C and the “nsp15 Tm lowered by” value was “more than 10 °C”. The inhibition at 10 µM in data set [1] (setting [18]) was found to be 80%.
As to `Cc1nc2c(s1)C(=O)C=C(NCCN(C)C)C2=O` [BN-82685], in data set [2], the “Amplex Red Assay % Activity” value is above 100%. In addition, in [3], the “DSF Assay ΔTm” value was -11.3 °C and the “nsp15 Tm lowered by” value was “more than 10 °C”. In data set [1] (setting [18]), the inhibition at 10 µM is 76%.
In the case of `CC1(C)C(=O)N=C2C1=C(O)C(=O)c1ccccc12` [BVT-948], in [3], the “DSF Assay ΔTm” value is -11.8 °C and the “nsp15 Tm lowered by” value is “more than 10 °C”. The “1° FRET Assay % inhibition” value in data set [1] worked out at 90%. Besides, in [1] (read-out: 2° FRET Assay IC50), the negative-log IC50 (pIC50) was 5.30. Further, the pIC50 in data set [1] (read-out: 3° FRET Assay IC50) is 7.00.
For the molecule `CC(=O)[C@]1(O)Cc2c(O)c3c(c(O)c2[C@@H](O[C@H]2C[C@H](N)[C@H](O)[C@H](C)O2)C1)C(=O)c1c(O)cccc1C3=O` [Carubicin], in data set [1], the inhibition at 10 µM worked out at 56%.
Consider `CC(C)(O/N=C(\C(=O)N[C@@H]1C(=O)N2C(C(=O)[O-])=C(C[n+]3ccccc3)CS[C@H]12)c1csc(N)n1)C(=O)O` [Ceftazidime], for which the values for the negative-log IC50 (pIC50) in [1] (2° FRET Assay IC50) and in [1] (3° FRET Assay IC50) were below 5.00 and 4.14, respectively. In addition, in data set [1] (setting [18]), the inhibition at 10 µM worked out at 66%.
Regarding `COc1cccc2c1C(=O)c1c(O)c3c(c(O)c1C2=O)C[C@@](O)(C(=O)CO)C[C@@H]3O[C@H]1C[C@H](N)[C@H](O)[C@H](C)O1` [Doxorubicin], the figures for the pIC50 in data set [1] (2° FRET Assay IC50) and in [1] (3° FRET Assay IC50) were 5.13 and 5.03, respectively.
Consider `O=C(Nc1ccc(O)c(O)c1)c1cccc(O)c1O` [Exebryl-1], for which the “DSF Assay ΔTm” value in [3] was determined as 0.1 °C. Further, the inhibition at 10 µM in data set [1] (setting [18]) came to 57%. Also, the results for the CC50 at 48 h in data set [4], in data set [7] and in data set [13] were 37.8 µM, above 200 µM and above 200 µM, respectively. In addition, the toxicity result in data set [5] was “without evident toxicity”. In [6], the EC90 is 51 µM. This molecule also showed a pKd in data set [8] of around 4.92. Also, the pEC50 in data set [9] was 4.18; in [12] (Severe acute respiratory syndrome coronavirus 2, Vero 76, read-out: EC50 (concentration that reduces CPE by 50%)) it was 5.00; in data set [12] (Severe acute respiratory syndrome coronavirus 2, Vero 76, neutral red staining, read-out: EC50 (CPE)) it was 4.80. For the same molecule, the plasma concentration in data set [10] (at 1 h) is 9 µM. For the same molecule, the plasma levels entry in data set [10] (by 4 h after dosing) is “below 4 μM”. The CC50 at 5 days was found to be 52 µM in [11] (CC50, Vero 76, microscopic observation) and 57 µM in [11] (CC50, Vero 76 cell growth, neutral red staining). This molecule displayed an antiviral activity in data set [12] (summary across Vero 76, Caco-2, and Calu-3 cells) of 10 to 66 µM. In data set [14], this molecule yielded a half-maximal cytotoxic concentration (CC50) of 61 µM. Moreover, in [15], the pIC50 is 5.03.
With `CCc1ccccc1NC(=O)Oc1ccc2c(c1)[C@]1(C)CCN(C)O[C@@H]1N2C` [Ganstigmine], the inhibition at 10 µM in data set [1] stood at 51%.
As for `O=C(Nc1cccc(C2=NCCN2)c1)c1ccc(-c2ccc(C(=O)Nc3cccc(C4=NCCN4)c3)cc2)cc1` [MMV1580853], the “Amplex Red Assay % Activity” value in [2] is listed as below 25%. Moreover, in data set [3], the “DSF Assay ΔTm” value was 0.1 °C. Also, in data set [1] (setting [18]), the inhibition at 10 µM worked out at 62%. In addition, the half-maximal cytotoxic concentration (CC50) at 48 h in [4] and in [13] was above 80 µM in each case. In addition, the “binding detected on CID- or SID-released monomers” value in data set [8] (~10 μM compound, 5 μM nsp15) is recorded as “too weak to be detected”. For the same molecule, in data set [16], the solubility result was “poor solubility”. The “protection against viral CPE” value in data set [12] is on record as “Neither Piroxantrone nor MMV1580853 exhibited protection against viral CPE”.
Turning to `C/C1=C2/[N-][C@H]([C@H](CC(N)=O)[C@@]2(C)CCC(=O)NC[C@@H](C)OP(=O)([O-])O[C@H]2[C@@H](O)[C@@H](n3cnc4cc(C)c(C)cc43)O[C@@H]2CO)[C@]2(C)N=C(/C(C)=C3N=C(/C=C4N=C1[C@@H](CCC(N)=O)C\4(C)C)[C@@H](CCC(N)=O)[C@]\3(C)CC(N)=O)[C@@H](CCC(N)=O)[C@]2(C)CC(N)=O.[CH3-].[Co+3]` [Mecobalamin], the “DSF Assay ΔTm” value in data set [3] was -3.4 °C. In addition, in [1] (setting [18]), the “1° FRET Assay % inhibition” value was found to be 58%. The negative logarithm of the IC50 (pIC50) in data set [1] (secondary dose response, 8-point 3-fold, top concentration 10 μM, read-out: 2° FRET Assay IC50) was 5.48; in data set [1] (tertiary dose response, expanded concentration range, read-out: 3° FRET Assay IC50) it was 4.74.
Consider `C[C@@H]1CNS(=O)(=O)N(c2ccc3c(C#N)nccc3c2)C1` [PF-06260414], for which the “1° FRET Assay % inhibition” value in [1] is listed as 74%. The negative logarithm of the IC50 (pIC50) in data set [1] (read-out: 2° FRET Assay IC50) was 5.11; in data set [1] (read-out: 3° FRET Assay IC50), below 4.10.
As to `NCCCNc1ccc2c3c(nn2CCNCCO)-c2c(O)ccc(O)c2C(=O)c13` [Piroxantrone], in data set [3], the “DSF Assay ΔTm” value was -1.1 °C. The inhibition at 10 µM in data set [1] (setting [18]) turned out to be 74%. Besides, the CC50 at 48 h in [4] was below 1.25 µM; in data set [13], 33.9 µM. Further, the “protection against viral CPE” value in [12] is “Neither Piroxantrone nor MMV1580853 exhibited protection against viral CPE”.
As to `COC1=C(N)C(=O)c2nc(-c3nc(C(=O)O)c(C)c(-c4ccc(OC)c(OC)c4O)c3N)ccc2C1=O` [Streptonigrin], the “Amplex Red Assay % Activity” value in data set [2] is listed as above 100%. For the same molecule, in data set [3], the “DSF Assay ΔTm” value is -11.5 °C and the “nsp15 Tm lowered by” value was “more than 10 °C”. In data set [1], the “3° FRET Assay IC50” value is on record as “sub-micromolar” and the inhibition at 10 µM was found to be 89%. This molecule also showed a pIC50 in [1] (2° FRET Assay IC50) of 5.37. The molecule further gave a pIC50 in data set [1] (3° FRET Assay IC50) of 6.54.
Consider `O=C1NC(=O)/C(=C\c2ccccc2)C2=C1CCCC2` [Tesimide], for which, in data set [3], the “DSF Assay ΔTm” value is -11.7 °C and the “nsp15 Tm lowered by” value is “more than 10 °C”. The inhibition at 10 µM in data set [1] (setting [18]) is 82%.
Take `Cc1cc(-c2ccc(/N=N/c3c(S(=O)(=O)O)cc4cc(S(=O)(=O)O)cc(N)c4c3O)c(C)c2)ccc1/N=N/c1c(S(=O)(=O)O)cc2cc(S(=O)(=O)O)cc(N)c2c1O` [Trypan Blue]: in [1] (2° FRET Assay IC50), the negative-log IC50 (pIC50) is 5.29 and 5.11. In data set [1] (setting [18]), the “1° FRET Assay % inhibition” value worked out at 51% and the inhibition at 10 µM was determined as 58%.
Regarding `COc1cccc2c1C(=O)c1c(O)c3c(c(O)c1C2=O)C[C@@](O)(C(=O)CO)C[C@@H]3O[C@H]1C[C@H](N)[C@H](O[C@@H]2CCCCO2)[C@H](C)O1` [pirarubicin], the “DSF Assay ΔTm” value in [3] was 0.4 °C. For the same molecule, the pIC50 was 5.42 in [1] (2° FRET Assay IC50) and 5.22 in [1] (3° FRET Assay IC50). The inhibition at 10 µM in data set [1] was found to be 66%.
With `N=C1CCCN1Cc1nc(O)nc(O)c1Cl` [tipiracil], the antiviral activity result in data set [17] is “only minimal antiviral activity”.
For `CC(=O)O[C@H]1C[C@@H]2CC[C@@H]3[C@H](CC[C@@]4(C)[C@H]3C[C@H]([N+]3(C)CCCCC3)[C@@H]4OC(C)=O)[C@@]2(C)C[C@@H]1N1CCCCC1` [vecuronium bromide], the inhibition at 10 µM in [1] worked out at 61%.
Turning to `CC1(C)CCC2=C(O1)c1ccccc1C(=O)C2=O` [β-Lapachone], the “Amplex Red Assay % Activity” value in data set [2] is on record as above 100%. Also, the “DSF Assay ΔTm” value in data set [3] is -11.5 °C. For the same molecule, the “nsp15 Tm lowered by” value in data set [3] (negative Tm shift, 100 μM ligand) was “more than 10 °C”. In data set [1], the “3° FRET Assay IC50” value is recorded as “sub-micromolar” and the inhibition at 10 µM is 73%. Besides, the negative logarithm of the IC50 (pIC50) in [1] (2° FRET Assay IC50) was 5.56. In data set [1] (3° FRET Assay IC50), the negative-log IC50 (pIC50) was 6.51.

The record behind these values is article PMC8062000, “High-throughput screening of the ReFRAME, Pandemic Box, and COVID Box drug repurposing libraries against SARS-CoV-2 nsp15 endoribonuclease to identify small-molecule inhibitors of viral activity” (PLoS ONE, 2021).
